For the first experiment, the target named is T1, Prostaglandin D2 receptor 2 (Homo sapiens, UniProt Q9Y5Y4).
T1 sequence (Q9Y5Y4 whole entry): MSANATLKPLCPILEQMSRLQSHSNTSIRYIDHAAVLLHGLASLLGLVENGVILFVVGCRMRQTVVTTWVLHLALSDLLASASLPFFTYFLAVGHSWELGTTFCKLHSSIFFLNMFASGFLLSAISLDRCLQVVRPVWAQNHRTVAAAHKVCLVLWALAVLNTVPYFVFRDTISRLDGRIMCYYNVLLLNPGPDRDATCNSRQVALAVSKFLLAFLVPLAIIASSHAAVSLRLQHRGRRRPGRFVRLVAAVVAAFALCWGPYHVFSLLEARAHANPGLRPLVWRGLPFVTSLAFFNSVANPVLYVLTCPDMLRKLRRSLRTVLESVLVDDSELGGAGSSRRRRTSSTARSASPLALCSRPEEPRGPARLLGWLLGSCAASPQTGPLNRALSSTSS
Test: not given
For the molecule `O=C(O)CCC(=O)N(C1CC1)C1c2ccccc2N(C(=O)c2ccccc2)C2CCCC21` (racemic), the IC50 – broadly, the concentration that inhibits the measured activity by half – was determined as 41 nM.

Consider `CCN(C(C)=O)[C@H]1c2ccccc2N(C(=O)c2ccccc2)[C@H]2CCC[C@@H]12`, for which the IC50 is 1840 nM.

The target in the next experiment is T1, Prostaglandin D2 receptor 2. Nature of the experiment: biochemical.
Description: Displacement of [3H]PGD2 from human CRTh2 expressed in HEK cell membranes after 60 mins by scintillation counting method
`O=C(O)CCC(=O)N(C1CC1)[C@H]1c2cc(C(F)F)ccc2N(C(=O)c2ccc(OC(F)(F)F)cc2)[C@H]2CCC[C@H]21`: the Ki (as a rule, the equilibrium dissociation constant of an inhibitor or competing ligand from its target) is 14 nM.

`O=C(O)CCC(=O)N(C1CC1)C1c2ccccc2N(C(=O)c2ccccc2)C2CCCC21` (racemic): affinity was put at a Ki of 10 nM.

In the case of `O=C(O)CCC(=O)N(C1CC1)[C@H]1c2cc(-c3cncnc3)ccc2N(C(=O)c2ccc(OC(F)(F)F)cc2)[C@H]2CCC[C@H]21`, the Ki stood at 300 nM.

`CC(C)N(C(=O)CCC(=O)O)[C@H]1c2ccccc2N(C(=O)c2ccc(OC(F)(F)F)cc2)[C@H]2CCCC21` (single isomer, unassigned) had a Ki of 50 nM.

For the molecule `O=C(O)COC(=O)N(C1CC1)C1c2ccccc2N(C(=O)c2ccccc2)C2CCCC21` (racemic), the affinity corresponds to a Ki of 9.4 nM.

Regarding `CC(CC(=O)N(C1CC1)[C@H]1c2ccccc2N(C(=O)OCc2ccccc2)[C@H]2CCC[C@H]21)C(=O)O` (stereo partly specified), affinity was put at a Ki of 510 nM.

In turn, `CN(C(=O)CCC(=O)O)[C@H]1c2ccccc2N(C(=O)c2ccc(OC(F)(F)F)cc2)[C@H]2CCCC12` (single isomer, unassigned) had a Ki of 16 nM.

Molecule `O=C(O)CCC(=O)N(C1CC1)[C@H]1c2ccccc2N(CC(=O)Nc2ccc(F)cc2)[C@H]2CCC[C@H]21` displayed a Ki of 660 nM.

`CC1(N(C(=O)CCC(=O)O)[C@H]2c3ccccc3N(C(=O)c3ccc(OC(F)(F)F)cc3)[C@H]3CCCC32)CC1` (single isomer, unassigned) gave a Ki of 64 nM.

Molecule `CCN(C(C)=O)[C@H]1c2ccccc2N(C(=O)c2ccccc2)[C@H]2CCC[C@@H]12` displayed a Ki of 26 nM.

`O=C(O)CCC(=O)N(C1CC1)[C@H]1c2cc(C3CC3)ccc2N(C(=O)c2ccc(OC(F)(F)F)cc2)[C@H]2CCC[C@H]21`: the affinity, expressed as Ki, was 43 nM.

Turning to `CCN(C(=O)CCC(=O)O)[C@H]1c2ccccc2N(C(=O)c2ccc(OC(F)(F)F)cc2)[C@H]2CCCC12` (single isomer, unassigned), the Ki stood at 12 nM.

`O=C(O)c1ccccc1C(=O)N(C1CC1)[C@H]1c2ccccc2N(C(=O)c2ccc(OC(F)(F)F)cc2)[C@H]2CCC[C@H]21` registered a Ki of 840 nM.

In the case of `O=C(O)CCCC(=O)N(C1CC1)C1c2ccccc2N(C(=O)OCc2ccccc2)C2CCCC21` (racemic), the Ki was found to be 1490 nM.

Regarding `O=C(O)CCC(=O)N(CC1CCC1)[C@H]1c2ccccc2N(C(=O)c2ccc(OC(F)(F)F)cc2)[C@H]2CCCC12` (single isomer, unassigned), the Ki is 9 nM.

`O=C(O)CCC(=O)N(C1CCC1)[C@H]1c2ccccc2N(C(=O)c2ccc(OC(F)(F)F)cc2)[C@H]2CCCC21` (single isomer, unassigned) gave a Ki of 8.6 nM.

In the case of `O=C(O)CCC(=O)N(C1CC1)[C@H]1c2ccccc2N(c2nnc(-c3ccccc3)o2)[C@H]2CCC[C@H]21`, the Ki was 28 nM.

Molecule `O=C(O)CCC(=O)N(CCC(F)(F)F)[C@H]1c2ccccc2N(C(=O)c2ccc(OC(F)(F)F)cc2)[C@H]2CCCC12` (single isomer, unassigned) showed a Ki of 35 nM.

The molecule `O=C(O)CCC(=O)N(C1CC1)[C@H]1c2ccccc2N(C(=O)Nc2ccccc2)[C@H]2CCC[C@H]21` came in with a Ki of 56 nM.

As for `CC(C)(CC(=O)N(C1CC1)[C@H]1c2ccccc2N(C(=O)OCc2ccccc2)[C@H]2CCC[C@H]21)C(=O)O`, affinity was put at a Ki of 7800 nM.

Molecule `C[C@H](CC(=O)N(C1CC1)[C@H]1c2ccccc2N(C(=O)OCc2ccccc2)[C@H]2CCC[C@H]21)C(=O)O` yielded a Ki of 82 nM.

For the molecule `O=C(c1ccc(OC(F)(F)F)cc1)N1c2ccccc2[C@H](N(C(=O)CCc2nn[nH]n2)C2CC2)[C@@H]2CCC[C@@H]21`, the Ki stood at 98 nM.

The molecule `O=C(O)CCC(=O)N(C1CC1)[C@H]1c2cc(-c3ccc(F)cc3)ccc2N(C(=O)c2ccc(OC(F)(F)F)cc2)[C@H]2CCC[C@H]21` yielded a Ki of 110 nM.

In the case of `CCc1ccc2c(c1)[C@H](N(C(=O)CCC(=O)O)C1CC1)[C@@H]1CCC[C@@H]1N2C(=O)c1ccc(OC(F)(F)F)cc1`, the Ki came to 31 nM.

The values are drawn from ChEMBL document CHEMBL4196118, “Discovery of MK-8318, a Potent and Selective CRTh2 Receptor Antagonist for the Treatment of Asthma” (ACS Med Chem Lett, 2018).
